The text below walks through data of patent US7622494B2, “Chemical compounds” (SmithKline Beecham Corporation, priority 2003, dated 2009).

This assay relates to episomal HPV-16 DNA in W12-20850 cells. Briefly: W-12 cellular assay (hybrid capture quantification of episomal HPV-16 DNA). The assay is classed as cell-based, HPV16. The following applies: read-out: W-12. The procedure:
Compounds of the current invention are believed useful in the treatment and/or prophylaxis of conditions and diseases associated with HPV infection. Activity mediated through HPV was determined using the following W-12 cellular assay.
The W12 cell line used contains HPV16 DNA and was derived from a low-grade cervical dysplasia tissue by Margaret Stanley and subsequently clonally selected by Paul Lambert (University of Wisconsin). One of these clones, W12-20850, contains 1000 copies of episomal HPV16 DNA and was used in the cell-based assay. W12-20850 cells were routinely cultured with a gamma-irradiated (6000 rads) feeder layer of 3T3 cells. Assays, however, were run in the absence of a 3T3 feeder layer. W12-20850 and 3T3 cells were routinely split when they were sub-confluent. W12-20850 were grown in W12 Medium which is constituted of 25% DMEM (Gibco BRL, Cat # 12430-047), 75% F12 Media (Gibco BRL, Cat # 11765-021) and 2.5% FBS. The additives include […] Adenine (Sigma, Cat # A-9795), […] Hydrocortisone (Calbiochem, Cat # 386698); 5.0 mg/ml Bovine Insulin (Sigma, Cat # I-1882), 8.4 ng/ml cholera toxin (Fluka, Cat # 26694) and 10 ng/ml EGF (Invitrogen, Cat # 13247-051). 3T3 cells were grown in DMEM containing 10% FBS. Cell lines were incubated at 37° C., in the presence of 5% CO2.
For the assay, W12-20850 cells were seeded into a 96 well plate-containing compound. Plates were incubated at 37° C. in the presence of 5% CO2, for four days. On the fourth day, cells were lysed and the amount of episomal. HPV-16 DNA was quantified using a non-radioactive hybrid capture technique with HPV-16 specific capture and detection probes. The percent inhibition relative to untreated control cells' was then determined.
The hybrid capture assay is run in a 96 well plate format. Hybridization plates (Nunc Maxisorb Cat # 450320) were coated with a mixture of capture probe and ReactiBind solution for at least 4 hours and then washed with 0.2×SSC, 0.05% Tween20 (SSCT) prior to blocking with […] of 0.2 N NaOH, 1% Igepal, 10 mg/ml hsDNA for 6-8 hours. The hybridization was carried out by mixing 27 μl of lysed cells with 45 μl of denatured detection probe in 6M guanidine isothiocyanate. To prevent evaporation, 50 μl of mineral oil was added to each well. The plate was then heated to 90° C. for 6.5 minutes and the hybridization continued at 42° C. overnight. Assay plates were washed 6 times with SSC/T. Anti-digoxigenin HRP-conjugated Ab (Boehringer Mannheim 1207733, 1:5000) was incubated in the wells for 30 min at room temperature and washed with PBS/0.05% Tween-20. SuperSignal LBA substrate (Pierce Cat # 37070) was added, and chemiluminescence was measured using Wallac 1420 Victor plate reader.

Setting [1] is: Human papillomavirus 16, W12-20850, 96 h.
Setting [2] is: Human papillomavirus 16, 96 h, W12-20850 cells, four days incubation, episomal HPV-16 DNA by hybrid capture, inhibition relative to untreated control cells.

Where a name gives a salt, the structure may show the parent alone. Read-outs that look alike come from different tables or passages of the source.

Regarding `Cc1ccc2[nH]c3c(c2c1)CCC[C@H]3N[C@@H](C)c1ccccc1` [Example 47, (1R)-6-Methyl-N-[(1S)-1-phenylethyl]-2,3,4,9-tetrahydro-1H-carbazol-1-amine hydrochloride salt], under setting [1], the IC50 turned out to be 0.16 µM.
The same measure, in the same setting: the value for `C[C@@H](NC1CCCc2c1[nH]c1ccc([N+](=O)[O-])cc21)c1ccccc1` (stereo partly drawn) [Example 49, 6-Nitro-N-[(1R)-1-phenylethyl]-2,3,4,9-tetrahydro-1H-carbazol-1-amine hydrochloride salt] was 0.083 µM.
For `Brc1ccc2[nH]c3c(c2c1)CCC3NCCc1ccccc1` (stereo not drawn) [Example 50, 7-Bromo-N-(2-phenylethyl)-1,2,3,4-tetrahidrocyclopenta[b]indol-3-amine hydrochloride salt], the IC50 under setting [2] was found to be 11 µM.
Same read-out and setting: next, `C[C@@H](N[C@@H]1CCc2c1[nH]c1ccc(Br)cc21)c1ccccc1` [Example 51, (3R)-7-Bromo-N-[(1R)-1-phenylethyl]-1,2,3,4-tetrahydrocyclooenta[b]indol-3-amine hydrochloride salt]: 0.122 µM; `C[C@@H](N[C@H]1CCc2c1[nH]c1ccc(Br)cc21)c1ccccc1` [Example 52, (3S)-7-Bromo-N-[(1R)-1-phenylethyl]-1,2,3,4-tetrahydrocyclobenta[b]indol-3-amine hydrochloride salt]: 29 µM.
For `COc1ccc2[nH]c3c(c2c1)CCCC3NCc1ccccc1` (stereo not drawn) [Example 53, N-Benzyl-6-methoxy-2,3,4,9-tetrahydro-1H-carbazol-1-amine hydrochloride salt], under setting [1], the IC50 was 7.6 µM.
The same measure, in the same setting: the value for `Brc1ccc2[nH]c3c(c2c1)CCCCC3NCc1ccccc1` (stereo not drawn) [Example 54, N-Benzyl-2-bromo-5,6,7,8,9,10-hexahydrocyclohepta[b]indol-6-amine hydrochloride] was 1.1 µM.
As for `C[C@@H](NC1CCCCc2c1[nH]c1ccc(Br)cc21)c1ccccc1` (stereo partly drawn) [Example 55, 2-Bromo-N-[(1R)-1-phenylethyl]-5,6,7,8,9,10-hexahydrocycloheota[b]indol-6-amine hydrochloride], the IC50 under setting [2] is 1 µM.
The same measure, in the same setting: the value for `Brc1ccc2[nH]c3c(c2c1)CCCCC3NCCc1ccccc1` (stereo not drawn) [Example 56, 2-Bromo-N-(2-phenylethyl)-5,6,7,8,9,10-hexahydrocycloheDta[b]indol-6-amine hydrochloride] was 0.774 µM.
For the compound `Fc1ccc(CNC2CCCc3c2[nH]c2ccc(Br)cc32)cc1` (stereo not drawn) [Example 57, 6-Bromo-N-(4-fluorobenzyl)-2,3,4,9-tetrahydro-1H-carbazol-1-amine hydrochloride], the IC50 under setting [1] is 0.139 µM.
The same measure, in the same setting: next, `FC(F)(F)c1ccc2[nH]c3c(c2c1)CCCC3NCc1ccccc1` (stereo not drawn) [Example 58, N-Benzyl-6-(trifluoromethyl)-2,3,4,9-tetrahydro-1H-carbazol-1-amine hydrochloride]: 1 µM; `C[C@@H](NC1CCCc2c1[nH]c1ccc(C(F)(F)F)cc21)c1ccccc1` (stereo partly drawn) [Example 59, N-[(1R)-1-Phenylethyl]-6-(trifluoromethyl)-2,3,4,9-tetrahydro-1H-carbazol-1-amine hydrochloride]: 0.287 µM; `Brc1ccc2[nH]c3c(c2c1)CCCC3NC(c1ccccc1)c1ccccc1` (stereo not drawn) [Example 60, N-Benzhydryl-6-bromo-2,3,4,9-tetrahydro-1H-carbazol-1-amine hydrochloride]: 0.014 µM.
On the same count and under the same terms, the value for `Brc1ccc2c3c([nH]c2c1)C(NCc1ccccc1)CCC3` (stereo not drawn) [Example 61, N-Benzyl-7-bromo-2,3,4,9-tetrahydro-1H-carbazol-1-amine hydrochloride] was 11 µM; that for `C[C@@H](NC1CCCc2c1[nH]c1cc(Br)ccc21)c1ccccc1` (stereo partly drawn) [Example 62, 7-Bromo-N-[(1R)-1-phenylethyl]-2,3,4,9-tetrahydro-1H-carbazol-1-amine hydrochloride] was 8 µM.
With `Brc1ccc2c3c([nH]c2c1)C(NC1Cc2ccccc2C1)CCC3` (stereo not drawn) [Example 63, 7-Bromo-N-(2.3-dihydro-1H-inden-2-yl)-2,3,4,9-tetrahydro-1H-carbazol-1-amine hydrochloride], under setting [2], the IC50 worked out at 3.9 µM.
With `Brc1ccc2[nH]c3c(c2c1)CCCC3OCc1ccccc1` (stereo not drawn) [Example 64, 6-Bromo-1-[(phenylmethyl)oxy]-2,3,4,9-tetrahydro-1H-carbazole], under setting [2], the IC50 was found to be 0.095 µM.
The same measure, in the same setting: next, `CC(C)NC(=O)NC1CCCc2c1[nH]c1ccc(Br)cc21` (stereo not drawn) [Example 65, N-(6-Bromo-2,3,4,9-tetrahydro-1H-carbazol-1-yl)-N′-isopropylurea]: 5 µM; `COC(=O)NC1CCCc2c1[nH]c1ccc(Br)cc21` (stereo not drawn) [Example 66, Methyl 6-bromo-2,3,4,9-tetrahydro-1H-carbazol-1-ylcarbamate]: 0.165 µM; `CC(=O)NC1CCCc2c1[nH]c1ccc(Br)cc21` (stereo not drawn) [Example 67, N-(6-Bromo-2,3,4,9-tetrahydro-1H-carbazol-1-yl)acetamide]: 13 µM.
Same read-out and setting: the value for `O=C(NC1CCCc2c1[nH]c1ccc(Br)cc21)C1CCCCC1` (stereo not drawn) [Example 68, N-(6-Bromo-2,3,4,9-tetrahydro-1H-carbazol-1-yl)cyclohexanecarboxamide] was 0.38 µM.
With `CS(=O)(=O)NC1CCCc2c1[nH]c1ccc(Br)cc21` (stereo not drawn) [Example 69, N-(6-Bromo-2,3,4,9-tetrahydro-1H-carbazol-1-yl)methanesulfonamide], under setting [2], the IC50 turned out to be 2.3 µM.
With `NC(=O)NC1CCCc2c1[nH]c1ccc(Br)cc21` (stereo not drawn) [Example 70, N-(6-Bromo-2,3,4,9-tetrahydro-1H-carbazol-1-yl)urea], the IC50 under setting [2] is 10.3 µM.
For the compound `Brc1cccc2c3c([nH]c12)C(NCc1ccccc1)CCC3` (stereo not drawn) [Example 71, N-Benzyl-8-bromo-2,3,4,9-tetrahydro-1H-carbazol-1-amine hydrochloride], under setting [1], the IC50 turned out to be 11.4 µM.
